Results reported in a melting point compilation (Tetko et al.; mined from patent text by program, amines drawn as free bases though some values may be those of a salt).

SMILES	melting point [°C]
CC(C)(C)OC(=O)NCCNC(=O)c1ccc(Br)cn1	118
NC(=O)CCCCCCBr	84
O=C1CC(CCCl)c2ccccc2N1 (centres undefined)	112 to 113
CC1(C)C(=O)Nc2ccc(-c3cc(F)cc([N+](=O)[O-])c3)cc21	231 to 233
CCOC(=O)c1ncc2[nH]c3c(Br)cc(Br)cc3c2c1COC	98 to 99
CC1(C(=O)O)OC2CCCCC2NC1=O (centres undefined)	142 to 144
CCOc1ccc(C(=O)NC2N(C)C(c3ccc(F)cc3)=NC2(C(F)(F)F)C(F)(F)F)cc1 (centres undefined)	115 to 116
N#CCOC(=O)c1ccc([N+](=O)[O-])cc1	80 to 82
CCNC(=N)NC(=O)Cc1ccccc1OC	127 to 128
COC(=O)CC/C(C)=C/Cc1c(O)c2c(c(C)c1OC)COC2=O	104 to 105
CCNC(=O)N1CCc2ccc(S(=O)(=O)NC(=O)NC3CCCCC3)cc2CC1	158 to 160
CCCN=C(N)Nc1ccnc(CCCCC(N)=O)n1	212 to 214
COC(=O)c1ccc2[nH]cc(CC#N)c2c1	127 to 129
Cc1cc2oc(S(=O)(=O)N=CN(C)C)cc2cn1	175 to 177
CC1CC2C3CCC4=CC(=O)C=CC4(C)C3=CCC2(C)C1C(=O)CN1CCN(c2cc(NC34CC5CC(CC(C5)C3)C4)nc(NC34CC5CC(CC(C5)C3)C4)n2)CC1 (centres undefined)	210 to 220
CC(C)(C)c1cc(Sc2nnc(NC(=N)N)s2)cc(C(C)(C)C)c1O	248 to 249
COc1cccc(C2OCC(C)(C)C2(O)C(C)(C)C)c1 (centres undefined)	83 to 83.5
CC#CCOc1ccc(S(=O)(=O)NC(CO)C(=O)OC)cc1 (centres undefined)	72 to 74
CC(C)c1cc2cc(OCC(=O)O)c(Cl)c(Cl)c2s1	168 to 170
COC1OC2OC3(C)CCC4C(C)CCC(C1C)C24OO3 (centres undefined)	73 to 74.5
C=CC(=O)NCCNC(=O)C=C	150 to 155
COc1cc(C)c(Cl)cc1C(=O)Cl	106 to 107
Cc1nnsc1C(=O)Nc1ccc(-n2nc(C(F)(F)F)cc2C(F)(F)F)c(C(F)(F)F)c1	134 to 136

SMILES	melting point [°C]
CCNc1nc(N)nc2c1ncn2C1C=CC(CO)C1 (centres undefined)	171 to 173
COc1ccc(C(=O)Cl)cc1C12CC3CC(CC(C3)C1)C2	153 to 154
O=C(O)c1ccc(I)nc1	177 to 179
CC(C)(C)OC(=O)N1CCCN(c2ccc(N)cc2C#N)CC1	38
CCOC(=O)C1=C(C)NC(C#N)=C(C(=O)OCC)C1c1ccco1 (centres undefined)	139 to 141
CCC1=C(C)C(=C(C#N)C#N)C(C)=C(CC)O1	64 to 65
CN1CCC(C2c3ccccc3CCn3ncnc32)CC1 (centres undefined)	134
O=S(=O)(Nc1ccc(N2CCN3CCC2CC3)cc1)c1ccccc1	267
CC(C)c1nn(-c2ncc(C(F)(F)F)cc2Cl)cc1CCCO	66 to 67
CC(=O)Nn1c(C)nc2cc(C(F)(F)F)ccc21	214 to 216
COc1ccc2c(c1)S(=O)(=O)N=CN2CCCl	126 to 130
N#Cc1c(Cl)cc(Cl)c(CCC(=O)O)c1Cl	127 to 129
CCn1cc(C(=O)O)c(=O)c2cc(F)c(N3CCC(NC(=O)OC(C)(C)C)C3)c(C)c21 (centres undefined)	184 to 188
CCCc1cc(C(=O)O)ccc1OCCCCCCc1cccc(OC)c1OC	107 to 108
CCOC(=O)c1ccc2nc3sc(C(C)C)cc3c(=O)n2c1	122 to 123
COc1cc2c(cc1OC)CC(C(=O)O)C2	133 to 135
CCCNC(=O)N(CC(=O)OCC)CC1CC2c3cccc4[nH]cc(c34)CC2N(C)C1 (centres undefined)	109 to 110
CC1(C)CN(c2cccc(-c3cnc4[nH]cc(C(=O)C(C)(C)C)c4n3)c2)C1	227 to 229
Cc1nn(-c2c(Cl)cc(C(F)(F)F)cc2Cl)nc1C#N	53
COc1ccc(C/N=C/C(/C=N/Cc2ccc(OC)cc2)[N+](=O)[O-])cc1	132
CC(=O)NC1CC(C)(C)NC(C)(C)C1	100 to 102
COc1ccc(Cl)cc1C(=O)NCCc1ccc(Br)c(S(N)(=O)=O)c1	190
COC(=O)c1c(C(F)F)nc(C(F)(F)F)c(C(C#N)=C2OCCO2)c1CC(C)C	121 to 122

Second part, the compound after the results:

melting point [°C]	SMILES
115 to 120	COc1ccccc1NC(=O)Nc1nc(Nc2ccccc2-c2ccccc2)nc(N(CC(=O)O)Cc2ccc(OC)c(OC)c2)n1
144 to 145	OC(c1cc(-c2ccc(Cl)cc2)c(-c2ccc(Cl)cc2)[nH]1)(C(F)(F)F)C(F)(F)F
65 to 70	CCCCN(Cc1ccc(-c2ccccc2-c2nnn[nH]2)cc1)c1ncc(C(=O)OCC)s1
163 to 165	CCOC(=O)c1cc(NCc2ccccc2)c(OCC(F)(F)F)c(S(N)(=O)=O)c1
158 to 160	O=C1NC(=O)C(=Cc2ccc(OCCN3CCN(c4ccccn4)CC3)cc2)S1
124 to 127	C=CCN(C)C(=O)Cn1c(-c2ccc(Cl)cc2)nc2cccnc21
> 200	N#Cc1c(N2CCc3ccccc3CC2)nc(NCC(F)(F)F)n(CC(F)(F)F)c1=O
124	CN(Cc1ccc(C2=NCCN2C(=O)OC(C)(C)C)cc1)C(=O)OCc1ccccc1
60 to 62	C=CCc1cc(C(=O)c2ccccc2)c(O)cc1OCCCCC#N
101 to 104	Cc1ccc(Oc2ccc(C)cc2CC(=O)O)cc1
126 to 128	CCCCc1oc2ccccc2c1-c1ccc(-c2ccc(OCC(=O)O)cc2)cc1
190 to 192	O=C1CC2CS(=O)c3ccccc3C2=NN1c1ccc(Cl)cc1 (centres undefined)
275 to 277	C[C@@H]1CN(Cc2ccc(F)cc2)CCN1C(=O)/C=C/c1ccc(Cl)cc1NC(=O)N1CCNC1=O
78 to 81	O=CNc1ccccc1CCc1ccccn1
136 to 138	Cc1ccc(N(c2ccc(C)cc2)c2ccc(C=Cc3ccccc3O)cc2)cc1
80 to 87	CC(C)CCC(O)C(CC1CCCCC1)NC(=O)C(Cc1c[nH]cn1)N(C)C(=O)C(Cc1ccccc1)OC(=O)N(C)CCC(=O)N1CCOCC1 (centres undefined)
158	O=C(c1ccc(Cl)c(Cl)c1)N1C(=O)N2CCCC2(Cc2ccc(Br)cc2)C1=O (centres undefined)
84.5 to 85.5	COC(=O)c1cccc(-c2cccc(CC(=O)O)c2)c1
173 to 190	COc1cc(C(=O)N2CCC(CCN3CCC(C(=O)c4nc5ccccc5n4Cc4ccc(C(=O)O)cc4)CC3)(c3ccccc3)C2)cc(OC)c1OC (centres undefined)
116 to 118	Clc1nc(-c2ccco2)nc2ccccc12
95 to 96	Cc1ccc(S(=O)(=O)OCC2COc3ccc4c(c3O2)CCO4)cc1 (centres undefined)
122 to 124	Nc1c(C(=O)c2ccccc2)oc2ccccc12
189 to 193	O=C1c2ccccc2C(=O)C1(O)c1cc(F)ccc1O
333 to 335	O=c1c2c[nH]c3c(c-2nn1-c1ccc(Cl)cc1)CC(c1ccccc1)CC3 (centres undefined)
196 to 197	Cc1oc(-c2ccccc2)nc1CCOc1ccc(CC2SC(=O)NC2=O)c2sccc12 (centres undefined)
164	N#Cc1cc(C2=Nc3cc(O)c(-c4ccc(F)cc4)cc3NC(=O)C2)ccn1
188 to 190	CCCOc1ccc2c(c1)C(c1ccc(OC)cc1OCC(=O)O)C(C(=O)O)C2c1cc2c(cc1OC)OCO2 (centres undefined)

melting point [°C]	SMILES
145 to 147	CC(=O)Oc1ccc(C2COc3cc(OC(C)=O)c(OC(C)=O)cc3C2)cc1 (centres undefined)
248 to 250	O=C(O)c1ccc(COCc2csc3nc(C(=O)NCc4cccc(OC(F)(F)F)c4)[nH]c(=O)c23)cc1
173 to 175	COc1ccc2c(Cc3c(Cl)cncc3Cl)nncc2c1
101 to 102	O=C(c1ccccc1)N1CCn2c(CN3CCOCC3)ccc2C1
73 to 76	COc1ccc(-c2ccc(F)cc2F)cc1
227 to 229	CCc1nc2c(C)cc(C)nc2n1Cc1ccc(C(c2ccccc2)C(CC)C(=O)O)cc1 (centres undefined)
81 to 82	O=C(O)CCCc1ccc(-c2ccc(F)cc2Cl)cc1
165 to 167	COc1cc(C(=O)N2Cc3ccc(C(=O)NCc4ccccc4C(F)(F)F)n3Cc3ccccc32)ccc1-c1ccccc1C
203	Cc1ccc(C)n1Nc1ccc(N2CCSCC2)nn1
192 to 193	COc1ccc(S(=O)(=O)N2C(=O)C(c3cc(C)ccc3OC)(N3C[C@H](O)C[C@H]3C(=O)N(C)C)c3cc(Cl)ccc32)c(OC(F)(F)F)c1 (some centres undefined)
123 to 126	Oc1ccccc1C=NC1CCOc2ccccc21 (centres undefined)
136 to 138	CC(C)(C)OC(=O)NCc1cccc(Cn2ccc(OCc3ccc(F)cc3)c(Br)c2=O)c1
280 to 281	CCCc1c(OCC(O)COc2ccc3c(=O)cc(C(=O)O)sc3c2CCC)ccc(C(C)=O)c1O (centres undefined)
242 to 244	NS(=O)(=O)c1ccc(-n2nc(C(F)F)cc2-c2nc3ccc(Cl)cc3s2)cc1
60 to 61	COCCCCOc1ccc(OCc2ccccc2)cc1
249 to 251	CCNCC1CCN(c2c(F)cc3c(=O)c(C(=O)O)cn(-c4ccc(F)cc4)c3c2F)C1 (centres undefined)
80 to 82	CN(Cc1ccccc1)c1cc(Oc2cccc(C(F)(F)F)c2)nc(C(=O)O)c1
194 to 195	Cc1ccc(-c2c(C)c(NC(=O)CC(C)(C)C)c(C)c3c2OCC3c2ccc(C(C)C)cc2)cc1 (centres undefined)
242	C(=C1COc2ccc3c4c(nnc1c24)C(=Cc1ccccc1)CO3)c1ccccc1
208 to 209	N=C(Nc1ccc(F)c(NC(=O)/C=C/c2ccccc2C(F)(F)F)c1)c1cccs1
264 to 266	COC(=O)c1ccc(C=C2CCn3c2nc2cc([N+](=O)[O-])ccc2c3=O)cc1
195 to 197	COn1c(C(C)(C)C)nc2c(N)nc3ccccc3c21
142 to 144	O=S(=O)(c1ccccc1)S(=O)(=O)c1ccccc1
137 to 138	O=C1C(=Cc2cccs2)CCc2cc(OCCn3ccnc3)ccc21
53 to 55	FC(F)(F)c1ccc(-c2cc(Cl)c3ccccc3n2)cc1
172 to 174	CNc1cc(NS(=O)(=O)c2ccccc2)ccc1[N+](=O)[O-]
